pIC50: −log10 of the molar value.

The term pIC50 denotes the IC50 on a negative log10 scale, so that one unit is a factor of ten. Higher therefore signals a small IC50.

This assay concerns the target T1, B7-1/CD28 (Homo sapiens, UniProt P33681).
T1 sequence (P33681 35-242 limits assumed): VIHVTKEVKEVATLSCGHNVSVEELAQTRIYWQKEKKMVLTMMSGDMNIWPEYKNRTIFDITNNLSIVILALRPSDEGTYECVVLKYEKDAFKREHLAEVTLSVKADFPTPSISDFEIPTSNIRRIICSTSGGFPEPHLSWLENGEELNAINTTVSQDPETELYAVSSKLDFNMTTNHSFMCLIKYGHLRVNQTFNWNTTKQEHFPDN
Put plainly: CD28/B7-1 ELISA (B7-1/CD28 binding inhibition). Conditions: CD28-Fc coated wells, B7-1-Fc-biotin detection complex. Here is the method:
Evaluation of B7-1/CD28 Binding Inhibition for Test Compounds
Wells are coated with 300 ng CD28-Fc in carbonate buffer (pH 9.4) overnight at 4° C., blocked with 1% bovine serum albumin in tris-buffered saline (TBS) for 1 h at 22° C. and washed 3 times in TBS prior to assay. The detection complex is formed as follows: B7-1-Fc-biotin, prepared using NHS-LC-biotin (Pierce #21335) according to the manufacturers instructions (4.1 moles biotin/mole Fc), is added at 0.8 ug/ml to streptavidin-alkaline phosphatase (Caltag Sa1008 at 1:1000 in TBS. Gradient dilutions of test compound in dimethylsulfoxide (1% final) are added to this complex and incubated 30 min. at 22° C. Detection complex (+/− inhibitors) is then added to the CD28 coated wells for 25 min. at 22° C., washed 5 times with TBS, developed with the calorimetric substrate pNPP (Pierce #34045) in diethanolamine/MgCl2 buffer (pH 9.5) and read at 405 nm. The inhibition constant (IC50) is calculated by subtracting the background binding and comparing to uninhibited (DMSO alone) controls. The inhibition constant represents the concentration of test compound required to achieve 50% inhibition.

Compound `O=c1c2c(-c3cccc(C(F)(F)F)c3)nc3sccc3c2[nH]n1-c1ccc(F)cc1` [Example 3, 2-(4-Fluorophenyl)-4-[3-(trifluoromethyl)phenyl]1,2-dihydro-3H-pyrazolo[3,4-d]thieno[2,3-b]pyridin-3-one] showed a pIC50 of 6.22. Then `O=c1c2c(-c3cccc(C(F)(F)F)c3)nc3sccc3c2[nH]n1-c1ccc(Cl)cc1` [Example 4, 2-(4-chlorophenyl)-4-[3-(trifluoromethyl)phenyl]-1,2-dihydro-3H-pyrazolo-[3,4-d]thieno[2,3-b]pyridin-3-one], with 6.30.
